Reference: patent US11524966B1 (Valo Early Discovery, Inc., priority 2017, dated 2022)

What follows are compounds tested against T1, USP28 (USP28-5(1-1077)-TEV-6*His; LifeSensors) (Homo sapiens, UniProt Q96RU2) (assay: Ubiquitin-Rhodamine 110 Assay for USP28 Activity, Example A-1(b)). Settings: Ubiquitin-Rhodamine 110 assay, Example A-1(b).
T1 construct: construct USP28 (USP28-5(1-1077)-TEV-6*His; LifeSensors); TEV cleavage site (C); 6xHis (C); purchased LifeSensors
T1 sequence (Q96RU2 1-1077): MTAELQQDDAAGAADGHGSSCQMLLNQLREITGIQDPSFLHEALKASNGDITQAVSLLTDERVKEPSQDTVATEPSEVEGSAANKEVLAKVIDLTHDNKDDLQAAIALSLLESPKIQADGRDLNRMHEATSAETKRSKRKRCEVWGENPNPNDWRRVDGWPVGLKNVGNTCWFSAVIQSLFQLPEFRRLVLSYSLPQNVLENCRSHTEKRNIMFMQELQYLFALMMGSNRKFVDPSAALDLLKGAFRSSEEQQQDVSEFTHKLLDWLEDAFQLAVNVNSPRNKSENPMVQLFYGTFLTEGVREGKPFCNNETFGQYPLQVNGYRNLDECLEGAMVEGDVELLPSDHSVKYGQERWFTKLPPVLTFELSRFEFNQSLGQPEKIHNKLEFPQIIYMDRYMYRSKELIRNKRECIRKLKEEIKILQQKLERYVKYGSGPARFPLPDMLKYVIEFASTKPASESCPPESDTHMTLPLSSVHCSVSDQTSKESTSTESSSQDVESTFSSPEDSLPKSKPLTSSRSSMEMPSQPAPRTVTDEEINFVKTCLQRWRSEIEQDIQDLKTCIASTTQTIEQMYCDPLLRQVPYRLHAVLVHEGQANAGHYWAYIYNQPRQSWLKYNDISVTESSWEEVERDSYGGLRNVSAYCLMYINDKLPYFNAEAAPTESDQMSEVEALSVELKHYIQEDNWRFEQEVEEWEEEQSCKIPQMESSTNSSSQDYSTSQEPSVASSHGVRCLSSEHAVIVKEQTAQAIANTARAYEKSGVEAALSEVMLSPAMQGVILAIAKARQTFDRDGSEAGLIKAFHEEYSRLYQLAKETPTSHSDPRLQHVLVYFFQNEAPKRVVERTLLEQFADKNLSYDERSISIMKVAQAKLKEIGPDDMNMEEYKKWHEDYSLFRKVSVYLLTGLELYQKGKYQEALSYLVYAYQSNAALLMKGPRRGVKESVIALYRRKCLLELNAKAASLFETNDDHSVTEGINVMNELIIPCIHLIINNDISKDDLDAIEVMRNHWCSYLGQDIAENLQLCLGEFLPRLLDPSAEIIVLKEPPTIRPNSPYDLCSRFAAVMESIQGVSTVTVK
Type: biochemical
Procedure, shortened: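 Single-point screening used 10 μM compound with 90 min room-temperature incubation; follow-up dose-responses (25 μM top, 3-fold) used 75 pM USP28 1-1077 construct, 30 min compound preincubation, 25 nM Ub-Rh110, 20 min reaction, citric acid quench. Rh110 fluorescence normalised to no-enzyme and DMSO controls; IC50 from 4-parameter logistic fit.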

Structure (SMILES) | USP28 A-1(b) IC50 range
O=C(N[C@H]1COc2cc(N3CCNCC3)ccc2C1)c1cnn2ccccc12 [Example 460, (R)-N-(7-(piperazin-1-yl)chroman-3-yl)pyrazolo[1,5-a]pyridine-3-carboxamide] | + (>2 μM)
O=C(N[C@H]1COc2cc(N3CCNCC3)ccc2C1)c1cnn2cc(Cl)ccc12 [Example 462, (R)-6-chloro-N-(7-(piperazin-1-yl)chroman-3-yl)pyrazolo[1,5-a]pyridine-3-carboxamide] | + (>2 μM)
Cc1cc(C)n2ncc(C(=O)N[C@H]3COc4cc(N5CCNCC5)ccc4C3)c2n1 [Example 463, (R)-5,7-dimethyl-N-(7-(piperazin-1-yl)chroman-3-yl)pyrazolo[1,5-a]pyrimidine-3-carboxamide] | + (>2 μM)
O=C(N[C@H]1COc2cc(N3CCNCC3)ccc2C1)c1ccc(NCc2cccc(Cl)c2)nc1 [Example 467, (R)-6-((3-chlorobenzyl)amino)-N-(7-(piperazin-1-yl)chroman-3-yl)nicotinamide] | ++ (0.2-2 μM)
O=C(N[C@H]1COc2cc(N3CCNCC3)ccc2C1)c1ccc(NCc2cccnc2)nc1 [Example 468, (R)-N-(7-(piperazin-1-yl)chroman-3-yl)-6-((pyridin-3-ylmethyl)amino)nicotinamide] | + (>2 μM)
O=C(N[C@H]1COc2cc(N3CCNCC3)ccc2C1)c1ccc(NCc2cccc(C(F)(F)F)c2)nc1 [Example 469, (R)-N-(7-(piperazin-1-yl)chroman-3-yl)-6-((3-(trifluoromethyl)benzyl)amino)nicotinamide] | ++ (0.2-2 μM)
O=C(N[C@H]1COc2cc(N3CCNCC3)ccc2C1)c1ccc(NCc2ccccn2)nc1 [Example 470, (R)-N-(7-(piperazin-1-yl)chroman-3-yl)-6-((pyridin-2-ylmethyl)amino)nicotinamide] | + (>2 μM)
O=C(N[C@H]1COc2cc(N3CCNCC3)ccc2C1)c1ccc(NCc2ccc3c(c2)OCCO3)nc1 [Example 471, (R)-6-(((2,3-dihydrobenzo[b][1,4]dioxin-6-yl)methyl)amino)-N-(7-(piperazin-1-yl)chroman-3-yl)nicotinamide] | + (>2 μM)
O=C(N[C@H]1COc2cc(N3CCNCC3)ccc2C1)c1ccc(NCc2ccc3c(c2)CCO3)nc1 [Example 472, (R)-6-(((2,3-dihydrobenzofuran-5-yl)methyl)amino)-N-(7-(piperazin-1-yl)chroman-3-yl)nicotinamide] | ++ (0.2-2 μM)
CC(=O)Nc1cccc(CNc2ccc(C(=O)N[C@H]3COc4cc(N5CCNCC5)ccc4C3)cn2)c1 [Example 473, (R)-6-((3-acetamidobenzyl)amino)-N-(7-(piperazin-1-yl)chroman-3-yl)nicotinamide] | + (>2 μM)
